Reference: ChEMBL document CHEMBL3885881, “DrugMatrix”

Species: Rattus norvegicus
Assay: DrugMatrix - Regimen: Daily Repeat
Type: toxicity, organism-based, Sprague-Dawley
Set-up: regimen Daily Repeat, gender Male, age 6-8 weeks
Settings: in vivo, po, route oral GAVAGE, vehicle 100 % WATER; for ABSOLUTE BASOPHIL / ABSOLUTE EOSINOPHIL / ABSOLUTE LYMPHOCYTE / ABSOLUTE MONOCYTE / ABSOLUTE SEGMENTED NEUTROPHIL / BASOPHIL / EOSINOPHIL / ERYTHROCYTE COUNT / HEMATOCRIT / HEMOGLOBIN / LEUKOCYTE COUNT / LYMPHOCYTE / MEAN CORPUSCULAR HEMOGLOBIN / MEAN CORPUSCULAR HEMOGLOBIN CONCENTRATION / MEAN CORPUSCULAR VOLUME / MONOCYTE / NEUTROPHIL / NUCLEATED RED BLOOD CELLS / PLATELET COUNT: tissue Blood; for ALANINE AMINOTRANSFERASE / ALBUMIN / ALKALINE PHOSPHATASE / ASPARTATE AMINOTRANSFERASE / BLOOD UREA NITROGEN / CARBON DIOXIDE / CHLORIDE / CHOLESTEROL / CREATINE PHOSPHOKINASE / CREATININE / GLUCOSE / LACTATE DEHYDROGENASE / LIPASE / PHOSPHORUS / POTASSIUM / SODIUM / TOTAL BILIRUBIN / TOTAL PROTEIN / URIC ACID: tissue Plasma
[1] = 0 mg/kg, 72 h, dose level Control, time 3 day
[2] = 0 mg/kg, 120 h, dose level Control, time 5 day
[3] = 10 mg/kg, 72 h, dose level Low, time 3 day

For `CCN(CC)CC#CCOC(=O)C(O)(c1ccccc1)C1CCCCC1` (centres undefined) [OXYBUTYNIN], the “ABSOLUTE BASOPHIL” value [1] was 0 CELLS/uL, the “ABSOLUTE EOSINOPHIL” value [1] was 24 CELLS/uL and the “ABSOLUTE LYMPHOCYTE” value [1] was 13105 CELLS/uL. The “ABSOLUTE MONOCYTE” value [1] was 76 CELLS/uL, the “ABSOLUTE SEGMENTED NEUTROPHIL” value [1] was 2145 CELLS/uL and the BASOPHIL [1] was 0%. The EOSINOPHIL [1] was 0.17%, the “ERYTHROCYTE COUNT” value [1] was 5.81 x10E6/uL and the HEMATOCRIT [1] was 35.6%. For the same molecule, the HEMOGLOBIN [1] was 13.72 G/DL, the “LEUKOCYTE COUNT” value [1] was 15.35 x10E3/uL and the LYMPHOCYTE [1] was 85.5%. The “MEAN CORPUSCULAR HEMOGLOBIN” value [1] was 23.62 pg, the “MEAN CORPUSCULAR HEMOGLOBIN CONCENTRATION” value [1] was 38.55 G/DL and the “MEAN CORPUSCULAR VOLUME” value [1] was 61.23 fL. The MONOCYTE [1] was 0.5%, the NEUTROPHIL [1] was 13.83% and the “NUCLEATED RED BLOOD CELLS” value [1] was 0 /100WBC. The “PLATELET COUNT” value [1] was 1189.83 x10E3/uL, the “ALANINE AMINOTRANSFERASE” value [1] was 48.67 u/L and the ALBUMIN [1] was 4.27 G/DL. For the same molecule, the “ALKALINE PHOSPHATASE” value [1] was 335 u/L, the “ASPARTATE AMINOTRANSFERASE” value [1] was 86.5 u/L and the “BLOOD UREA NITROGEN” value [1] was 14.33 mg/dL. For the same molecule, the “CARBON DIOXIDE” value [1] was 29.17 mmol/L, the CHLORIDE [1] was 99.83 MEQ/L and the CHOLESTEROL [1] was 71.83 mg/dL. For the same molecule, the “CREATINE PHOSPHOKINASE” value [1] was 506.83 u/L, the CREATININE [1] was 0.18 mg/dL and the GLUCOSE [1] was 162.17 mg/dL. For the same molecule, the “LACTATE DEHYDROGENASE” value [1] was 264.5 u/L, the LIPASE [1] was 9.67 u/L and the PHOSPHORUS [1] was 11.92 mg/dL. The POTASSIUM [1] was 6.55 MEQ/L, the SODIUM [1] was 141.53 MEQ/L and the “TOTAL BILIRUBIN” value [1] was 0.18 mg/dL. The “TOTAL PROTEIN” value [1] was 5.87 G/DL, the “URIC ACID” value [1] was 1.67 mg/dL and the “ABSOLUTE BASOPHIL” value [2] was 0 CELLS/uL. The “ABSOLUTE EOSINOPHIL” value [2] was 25.33 CELLS/uL, the “ABSOLUTE LYMPHOCYTE” value [2] was 15680 CELLS/uL and the “ABSOLUTE MONOCYTE” value [2] was 92.33 CELLS/uL. The “ABSOLUTE SEGMENTED NEUTROPHIL” value [2] was 2102.33 CELLS/uL, the BASOPHIL [2] was 0% and the EOSINOPHIL [2] was 0.17%. For the same molecule, the “ERYTHROCYTE COUNT” value [2] was 6 x10E6/uL, the HEMATOCRIT [2] was 35.55% and the HEMOGLOBIN [2] was 14.12 G/DL. For the same molecule, the “LEUKOCYTE COUNT” value [2] was 17.9 x10E3/uL, the LYMPHOCYTE [2] was 87.33% and the “MEAN CORPUSCULAR HEMOGLOBIN” value [2] was 23.65 pg. The “MEAN CORPUSCULAR HEMOGLOBIN CONCENTRATION” value [2] was 39.77 G/DL, the “MEAN CORPUSCULAR VOLUME” value [2] was 59.52 fL and the MONOCYTE [2] was 0.5%. The NEUTROPHIL [2] was 12%, the “NUCLEATED RED BLOOD CELLS” value [2] was 0.17 /100WBC and the “PLATELET COUNT” value [2] was 1325.67 x10E3/uL. For the same molecule, the “ALANINE AMINOTRANSFERASE” value [2] was 56.17 u/L, the ALBUMIN [2] was 4.23 G/DL and the “ALKALINE PHOSPHATASE” value [2] was 371.5 u/L. For the same molecule, the “ASPARTATE AMINOTRANSFERASE” value [2] was 91 u/L, the “BLOOD UREA NITROGEN” value [2] was 15.33 mg/dL and the “CARBON DIOXIDE” value [2] was 27.67 mmol/L. The CHLORIDE [2] was 99.5 MEQ/L, the CHOLESTEROL [2] was 66.5 mg/dL and the “CREATINE PHOSPHOKINASE” value [2] was 518.5 u/L. The CREATININE [2] was 0.18 mg/dL, the GLUCOSE [2] was 143.33 mg/dL and the “LACTATE DEHYDROGENASE” value [2] was 238.83 u/L. The LIPASE [2] was 9.33 u/L, the PHOSPHORUS [2] was 10.68 mg/dL and the POTASSIUM [2] was 6.5 MEQ/L. For the same molecule, the SODIUM [2] was 141.88 MEQ/L, the “TOTAL BILIRUBIN” value [2] was 0.18 mg/dL and the “TOTAL PROTEIN” value [2] was 6 G/DL. For the same molecule, the “URIC ACID” value [2] was 1.63 mg/dL, the “ABSOLUTE BASOPHIL” value [3] was 0 CELLS/uL and the “ABSOLUTE EOSINOPHIL” value [3] was 0 CELLS/uL. The “ABSOLUTE LYMPHOCYTE” value [3] was 11373.67 CELLS/uL, the “ABSOLUTE MONOCYTE” value [3] was 168.67 CELLS/uL and the “ABSOLUTE SEGMENTED NEUTROPHIL” value [3] was 2324.33 CELLS/uL. For the same molecule, the BASOPHIL [3] was 0%, the EOSINOPHIL [3] was 0% and the “ERYTHROCYTE COUNT” value [3] was 5.85 x10E6/uL. For the same molecule, the HEMATOCRIT [3] was 35.5%, the HEMOGLOBIN [3] was 13.87 G/DL and the “LEUKOCYTE COUNT” value [3] was 13.87 x10E3/uL. The LYMPHOCYTE [3] was 82.33%, the “MEAN CORPUSCULAR HEMOGLOBIN” value [3] was 23.77 pg and the “MEAN CORPUSCULAR HEMOGLOBIN CONCENTRATION” value [3] was 39.1 G/DL. The “MEAN CORPUSCULAR VOLUME” value [3] was 60.83 fL, the MONOCYTE [3] was 1.33% and the NEUTROPHIL [3] was 16.33%. The “NUCLEATED RED BLOOD CELLS” value [3] was 0 /100WBC, the “PLATELET COUNT” value [3] was 1157.33 x10E3/uL and the “ALANINE AMINOTRANSFERASE” value [3] was 50 u/L. The ALBUMIN [3] was 4.03 G/DL, the “ALKALINE PHOSPHATASE” value [3] was 314.33 u/L and the “ASPARTATE AMINOTRANSFERASE” value [3] was 86 u/L. For the same molecule, the “BLOOD UREA NITROGEN” value [3] was 13.67 mg/dL, the “CARBON DIOXIDE” value [3] was 28.33 mmol/L and the CHLORIDE [3] was 99.33 MEQ/L. The CHOLESTEROL [3] was 57.67 mg/dL, the “CREATINE PHOSPHOKINASE” value [3] was 426.33 u/L and the CREATININE [3] was 0.12 mg/dL. For the same molecule, the GLUCOSE [3] was 150.67 mg/dL, the “LACTATE DEHYDROGENASE” value [3] was 120 u/L and the LIPASE [3] was 9 u/L. It also gave a PHOSPHORUS [3] of 12.43 mg/dL, a POTASSIUM [3] of 6.97 MEQ/L and an SODIUM [3] of 141.47 MEQ/L. For the same molecule, the “TOTAL BILIRUBIN” value [3] was 0.17 mg/dL, the “TOTAL PROTEIN” value [3] was 5.57 G/DL and the “URIC ACID” value [3] was 1.97 mg/dL.
